Assay results taken from patent publication US6417359B1, “Pharmaceutical compositions and methods for use” (priority 1998, dated 2002).

Columns and labels:
[1] = molecular target: nicotinic receptors associated with dopamine release; assay: Dopamine release (receptor activation/inhibition); type: biochemical; settings: for Emax, dopamine release: amount released relative to (S)-(−)-nicotine
Procedure: Determination of Receptor Activation/Inhibition and Dopamine Release
Dopamine release was measured using the techniques described in U.S. Pat. No. 5,597,919 to Dull et al. Release is expressed as a percentage of release obtained with a concentration of (S)-(−)-nicotine resulting in maximal effects. Reported EC50 values are expressed in nM, and Emax values represent the amount released relative to (S)-(−)-nicotine or tetramethylammonium ion (TMA), on a percentage basis.
Reported IC50 values are expressed in nM and represent the concentration resulting in 50% inhibition of agonist induced receptor activation. Emax values represent the amount released relative to (S)-(−)-nicotine on a percentage basis.

ganglia-type receptors = assay: Determination of interaction with ganglion receptors; type: cell-based; settings: percentage of maximal activation induced by (S)-(−)-nicotine
Procedure: (§1) Determination of Interaction with Ganglion Receptors The determination of the interaction of the compounds with ganglionic receptors was carried out in accordance with the techniques described in U.S. Pat. No. 5,597,919 to Dull et al. The maximal activation for individual compounds (Emax) was determined as a percentage of the maximal activation induced by (S)-(−)-nicotine. Reported Emax values represent the amount released relative to (S)-(−)-nicotine on a percentage basis.

muscle-type receptors = muscle-type receptors (Homo sapiens, UniProt P02708+P07510+P11230+Q07001); assay: Determination of interaction with muscle receptors; type: cell-based; settings: percentage of maximal activation induced by (S)-(−)-nicotine
Sequence of muscle-type receptors (P02708 whole entry): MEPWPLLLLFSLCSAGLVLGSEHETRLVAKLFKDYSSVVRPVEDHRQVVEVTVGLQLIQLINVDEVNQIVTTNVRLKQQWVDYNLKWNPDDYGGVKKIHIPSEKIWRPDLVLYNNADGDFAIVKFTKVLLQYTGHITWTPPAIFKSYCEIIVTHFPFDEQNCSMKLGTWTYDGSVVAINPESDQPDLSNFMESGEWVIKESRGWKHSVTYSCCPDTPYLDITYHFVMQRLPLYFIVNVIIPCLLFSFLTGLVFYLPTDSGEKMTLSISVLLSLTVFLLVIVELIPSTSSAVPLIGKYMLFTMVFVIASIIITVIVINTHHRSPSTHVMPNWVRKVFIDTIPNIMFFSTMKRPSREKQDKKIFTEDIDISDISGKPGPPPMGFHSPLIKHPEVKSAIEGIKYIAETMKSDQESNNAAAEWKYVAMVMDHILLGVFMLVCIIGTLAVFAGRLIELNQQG
Sequence of muscle-type receptors (P11230 24-501): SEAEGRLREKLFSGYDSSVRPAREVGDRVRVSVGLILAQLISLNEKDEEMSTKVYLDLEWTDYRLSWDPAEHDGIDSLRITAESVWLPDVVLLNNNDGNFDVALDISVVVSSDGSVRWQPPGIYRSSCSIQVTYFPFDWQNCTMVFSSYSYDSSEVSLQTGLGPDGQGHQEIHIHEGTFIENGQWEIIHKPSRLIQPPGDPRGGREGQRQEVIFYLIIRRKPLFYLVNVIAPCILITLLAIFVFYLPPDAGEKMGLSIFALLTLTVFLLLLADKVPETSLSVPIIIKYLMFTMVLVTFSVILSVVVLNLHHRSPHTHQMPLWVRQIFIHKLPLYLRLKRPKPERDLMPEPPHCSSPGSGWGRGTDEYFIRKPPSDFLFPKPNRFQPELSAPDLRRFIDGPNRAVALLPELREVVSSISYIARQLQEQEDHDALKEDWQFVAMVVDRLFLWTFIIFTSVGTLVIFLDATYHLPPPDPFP
Sequence of muscle-type receptors (P07510 23-517): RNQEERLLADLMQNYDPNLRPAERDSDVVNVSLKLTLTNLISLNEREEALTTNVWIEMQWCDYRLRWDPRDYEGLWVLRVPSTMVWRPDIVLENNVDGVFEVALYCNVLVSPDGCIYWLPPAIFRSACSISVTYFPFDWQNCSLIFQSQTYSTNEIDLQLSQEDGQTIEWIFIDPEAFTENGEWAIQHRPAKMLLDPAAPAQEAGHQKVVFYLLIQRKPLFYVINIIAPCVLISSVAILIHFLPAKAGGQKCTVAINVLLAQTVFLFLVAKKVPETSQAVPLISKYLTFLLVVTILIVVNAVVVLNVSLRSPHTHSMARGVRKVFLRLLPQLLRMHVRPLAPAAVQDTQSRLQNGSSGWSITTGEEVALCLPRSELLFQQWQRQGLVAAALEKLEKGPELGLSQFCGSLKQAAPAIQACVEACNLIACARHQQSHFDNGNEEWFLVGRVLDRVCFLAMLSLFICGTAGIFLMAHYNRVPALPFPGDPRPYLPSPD
Sequence of muscle-type receptors (Q07001 22-517): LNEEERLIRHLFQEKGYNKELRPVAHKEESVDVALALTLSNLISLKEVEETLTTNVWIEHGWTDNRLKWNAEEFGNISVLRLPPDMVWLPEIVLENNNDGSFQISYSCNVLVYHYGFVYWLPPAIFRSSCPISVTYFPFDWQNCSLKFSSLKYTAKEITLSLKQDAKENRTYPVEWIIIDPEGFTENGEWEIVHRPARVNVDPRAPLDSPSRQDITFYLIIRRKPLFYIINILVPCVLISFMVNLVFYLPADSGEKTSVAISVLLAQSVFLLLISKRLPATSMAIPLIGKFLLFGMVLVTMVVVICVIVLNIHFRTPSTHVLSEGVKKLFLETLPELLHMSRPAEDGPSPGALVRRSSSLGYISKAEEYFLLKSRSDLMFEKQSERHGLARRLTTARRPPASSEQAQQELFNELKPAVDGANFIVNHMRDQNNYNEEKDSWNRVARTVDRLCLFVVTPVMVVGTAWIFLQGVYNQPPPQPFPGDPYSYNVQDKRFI
Procedure: Determination of Interaction with Muscle Receptors
as §1, with “The” for “Determination of Interaction with Ganglion Receptors The”, “muscle” for “ganglionic”

Row | Structure (SMILES) | EC50 [1] [µM] | Emax, dopamine release [1] [%] | Emax at ganglia-type receptors (ganglia-type receptors) [%] | Emax (muscle-type receptors) [%] | IC50 ([1]; concentration resulting in 50% inhibition of agonist induced receptor activation) [µM]
1 | Brc1cncc(C2C3CC4CC(C3)CN2C4)c1 (centres unmarked) [Sample No. 2, 1-aza-2-[5-bromo(3-pyridyl)]tricyclo[3.3.1.1^3,7]decane] | > 100 | 0 | 50 | 32 | 
2 | CC(C)Oc1cncc(C2C3CC4CC(C3)CN2C4)c1 (centres unmarked) [Sample No. 5, 1-aza-2-[5-isopropoxy-(3-pyridyl)]tricyclo[3.3.1.1^3,7]decane] | > 100 | 0 | 7 | 114 | 
3 | CCOc1cncc(C2C3CC4CC(C3)CN2C4)c1 (centres unmarked) [Sample No. 4, 1-aza-2-[5-ethoxy-(3-pyridyl)]-tricyclo-[3.3.1.1^3,7]decane] | > 100 | 0 | 0 | 22 | 0.846
4 | c1cncc(C2C3CC4CC(C3)CN2C4)c1 (centres unmarked) [Sample No. 1, 1-aza-2-(3-pyridyl)-tricyclo[3.3.1.1^3,7]decane] |  | 0 | 27 | 21 | 
5 | Cl.Cl.Cl.Nc1cncc(C2C3CC4CC(C3)CN2C4)c1 (centres unmarked) [Sample No. 3, 1-aza-2-[5-amino-(3-pyridyl)]tricyclo[3.3.1.1^3,7]decane trihydrochloride] | > 100 | 0 | 17 | 75 | 
